Measurements: patent US12509460B2 (Skyhawk Therapeutics, Inc., priority 2019, dated 2025)
Read-outs that look alike come from different tables or passages of the source.

Tests used:
[1] = tested on: MDR1-MDCK cell monolayers; conditions: dog, MDCK-MDR1, 120 min, 5 μM, pH 7.4
[2] = tested on: SMN protein in spinal muscular atrophy (SMA) patient fibroblasts (GM03813, Coriell); test: SMN protein assay, Mesoscale Discovery (MSD); type: cell-based, human; conditions: for EC50: read-out: SMN2 protein EC50
Outline: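 Absolute SMN levels were quantified by MSD against an SMN protein standard curve (1 μg/ml to 19.5 pg/ml) run on each plate. Samples were lysates of GM03813 patient fibroblasts (7000 cells/well) treated 48 hours with compound doses from 2.5 μM down to 0.6 nM.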

[3] = tested on: mHTT protein in GM04724 (CAG 70/20) Huntington's disease patient lymphoblast cells; test: mHTT protein assay, 2B7-MW1 assay via Mesoscale Discovery (MSD); type: cell-based, human
Outline: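 Signal from the 2B7-MW1 antibody pair on MSD, rising with polyQ length and smaller HTT fragments, measured mHTT after 48 h compound exposure (0.6 nM–10 μM) in GM04724 cells. A parallel replicate plate gave CellTiter Glo viability.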

MDR1 (P-gp) = test: in vitro; conditions: dog, MDCK-MDR1, pH 7.4
MDR1 = test: in vitro; conditions: dog, MDCK-MDR1, pH 7.4
[4] = SMA patient fibroblasts (GM03813), 48 hours
[5] = GM04724 (CAG 70/20) Huntington's disease patient lymphoblasts
[6] = SMA patient fibroblasts GM03813, 48 hours, MSD
[7] = GM04724 Huntington's disease patient lymphoblasts

SMILES	MDCK-MDR1: % Recov A-B [1]	MDCK-MDR1: % Recov B-A [1]	EC50 [2, 4]	mHTT protein EC50 [3, 5]	Papp A→B at 120 min, 5 μM (MDR1 (P-gp))	Papp B→A at 120 min, 5 μM (MDR1 (P-gp))	efflux ratio at 120 min, 5 μM (MDR1)	SMN2 protein EC50 [2, 6]	mHTT protein EC50 [3, 7]	EC50 [2, 6]	SMN2 protein EC50 [2, 4]
Cc1cc(=O)c2cc(O)c(-c3ccc(N(C)[C@@H]4C[C@H]5CC[C@@H]([C@@H]4F)N5C)nn3)cc2o1 [Compound 99A, 7-(6-(((1S,2S,3R,5R)-2-fluoro-8-methyl-8-azabicyclo[3.2.1]octan-3-yl)(methyl)amino)pyridazin-3-yl)-6-hydroxy-2-methyl-4H-chromen-4-one]	114%	91%	101 to 500 nM	E (501 ≤ E ≤ 10.000)	2 ×10⁻⁶ cm/s	36.3 ×10⁻⁶ cm/s	18	–	–	–	–
CC(=O)N(C)c1ccc(-c2ccc(N(C)[C@@H]3C[C@H]4CC[C@H](N4)[C@@H]3F)nn2)c(O)c1 [Compound 35A, N-(4-(6-(((1S,2S,3R,5R)-2-fluoro-8-azabicyclo[3.2.1]octan-3-yl)(methyl)amino)pyridazin-3-yl)-3-hydroxyphenyl)-N-methylacetamide]	102%	103%	–	–	0.21 ×10⁻⁶ cm/s	41 ×10⁻⁶ cm/s	197	E (501 ≤ E ≤ 10.000)	E (501 ≤ E ≤ 10.000)	–	–
CNC(=O)c1cc(O)c(-c2ccc(N(C)[C@H]3C[C@@H]4CC[C@H]([C@H]3F)N4C)nn2)cc1F (single isomer, unassigned) [Compound 96B]	92%	98%	–	–	2.72 ×10⁻⁶ cm/s	55.2 ×10⁻⁶ cm/s	20	E (501 ≤ E ≤ 10.000)	E (501 ≤ E ≤ 10.000)	–	–
CN(c1ccc(-c2cn3c(=O)ccnc3cc2O)nn1)[C@@H]1C[C@H]2CC[C@H](N2)[C@@H]1F (single isomer, unassigned) [Compound 82A]	104%	121%	–	–	0.08 ×10⁻⁶ cm/s	3.33 ×10⁻⁶ cm/s	40	–	E (501 ≤ E ≤ 10.000)	101 to 500 nM	–
CN(c1ccc(-c2cc(C#N)ccc2O)nn1)[C@@H]1C[C@H]2CC[C@H](N2)[C@@H]1F (single isomer, unassigned) [Compound 70A]	86%	89%	–	–	3.17 ×10⁻⁶ cm/s	60.2 ×10⁻⁶ cm/s	19	–	E (501 ≤ E ≤ 10.000)	101 to 500 nM	–
CN(c1ccc(-c2cc(F)c(-n3ccnn3)cc2O)nn1)[C@@H]1C[C@H]2CC[C@@H]([C@@H]1F)N2C [Compound 103A, 4-fluoro-2-(6-(((1S,2S,3R,5R)-2-fluoro-8-methyl-8-azabicyclo[3.2.1]octan-3-yl)(methyl)amino)pyridazin-3-yl)-5-(1H-1,2,3-triazol-1-yl)phenol]	86%	91%	–	E (501 ≤ E ≤ 10.000)	13.9 ×10⁻⁶ cm/s	60.3 ×10⁻⁶ cm/s	4	–	–	–	E (501 ≤ E ≤ 10.000)
CN1[C@H]2CC[C@@H]1[C@@H](F)[C@@H](N(c1ccc(-c3cc4ncn(CC(F)(F)F)c(=O)c4cc3O)nn1)C1CC1)C2 (single isomer, unassigned) [Compound 111B]	74%	56%	–	E (501 ≤ E ≤ 10.000)	0.66 ×10⁻⁶ cm/s	35.9 ×10⁻⁶ cm/s	54	–	–	–	E (501 ≤ E ≤ 10.000)
CN(c1ccc(-c2cc3cccnc3cc2O)nn1)[C@H]1C[C@@H]2CC(F)(F)[C@H](C1)N2 [Compound 45B, 6-(6-(((1R,3S,5S)-6,6-difluoro-8-azabicyclo[3.2.1]octan-3-yl)(methyl)amino)pyridazin-3-yl)quinolin-7-ol]	95%	111%	–	–	10.2 ×10⁻⁶ cm/s	45.3 ×10⁻⁶ cm/s	4	E (501 ≤ E ≤ 10.000)	E (501 ≤ E ≤ 10.000)	–	–
CN(c1ccc(-c2cc3ncn(CC(F)(F)F)c(=O)c3cc2O)nn1)[C@@H]1C[C@H]2CC[C@@H]([C@@H]1F)N2C (single isomer, unassigned) [Compound 108A]	82%	91%	–	E (501 ≤ E ≤ 10.000)	1.51 ×10⁻⁶ cm/s	73.7 ×10⁻⁶ cm/s	49	–	–	–	E (501 ≤ E ≤ 10.000)
Cc1nc2cc(-c3ccc(N(C)[C@@H]4C[C@H]5CC[C@@H]([C@@H]4F)N5C)nn3)c(O)cc2c(=O)n1CC(F)(F)F (single isomer, unassigned) [Compound 130A]	105%	116%	–	E (501 ≤ E ≤ 10.000)	0.67 ×10⁻⁶ cm/s	75.4 ×10⁻⁶ cm/s	113	–	–	–	E (501 ≤ E ≤ 10.000)
CN(c1ccc(-c2ccc(Oc3cnn(C)c3)cc2O)nn1)[C@H]1C[C@@H]2CC[C@@H](N2)[C@H]1F (single isomer, unassigned) [Compound 91B]	106%	102%	–	–	3.94 ×10⁻⁶ cm/s	73.3 ×10⁻⁶ cm/s	19	E (501 ≤ E ≤ 10.000)	E (501 ≤ E ≤ 10.000)	–	–
CN(c1ccc(-c2ccc(-n3cnc(C(=O)NC(C)(C)C)c3)cc2O)nn1)[C@@H]1C[C@H]2CC[C@H](N2)[C@@H]1F (single isomer, unassigned) [Compound 124A]	78%	78%	101 to 500 nM	E (501 ≤ E ≤ 10.000)	0.34 ×10⁻⁶ cm/s	45.7 ×10⁻⁶ cm/s	133	–	–	–	–
CN(c1ccc(-c2cc3ncn(CC(F)(F)F)c(=O)c3cc2O)nn1)[C@@H]1C[C@H]2CCC[C@@H]([C@@H]1F)N2C (single isomer, unassigned) [Compound 109A]	76%	81%	–	E (501 ≤ E ≤ 10.000)	2.72 ×10⁻⁶ cm/s	63.3 ×10⁻⁶ cm/s	23	–	–	–	E (501 ≤ E ≤ 10.000)
O=C(c1cc2cc(O)c(-c3ccc(N(C4CC4)[C@@H]4C[C@H]5CC[C@H](N5)[C@@H]4F)nn3)cc2o1)N1CCC1 [Compound 57A, azetidin-1-yl(6-(6-(cyclopropyl((1S,2S,3R,5R)-2-fluoro-8-azabicyclo[3.2.1]octan-3-yl)amino)pyridazin-3-yl)-5-hydroxybenzofuran-2-yl)methanone]	89%	104%	–	–	0.78 ×10⁻⁶ cm/s	63.2 ×10⁻⁶ cm/s	80	E (501 ≤ E ≤ 10.000)	E (501 ≤ E ≤ 10.000)	–	–
CN(C)C(=O)c1cc(O)c(-c2ccc(N(C)[C@@H]3C[C@H]4CC[C@@H]([C@@H]3F)N4C)nn2)cc1F (single isomer, unassigned) [Compound 104A]	106%	105%	–	E (501 ≤ E ≤ 10.000)	1.23 ×10⁻⁶ cm/s	43.1 ×10⁻⁶ cm/s	35	–	–	–	E (501 ≤ E ≤ 10.000)
